≈ marks a conversion by molar mass, not a printed value. Calls of active or inactive are those of the source. The calls are words filed in the database; no cut-off is given here.

One test relates to Pseudomonas aeruginosa. The test is described as follows: Antibacterial activity against Pseudomonas aeruginosa ATCC 27853 by serial dilution method. It is filed as functional.
The next test concerns Enterococcus faecalis. The test is described as follows: Antibacterial activity against Streptococcus faecalis ATCC 29212 by serial dilution method. It is filed as functional.
The subject of test [1] is Escherichia coli. The test is described as follows: Antibacterial activity against Escherichia coli ATCC 25922 by serial dilution method. Format: functional.
In test [2] the test system is Candida albicans. The test is described as follows: Antifungal activity against Candida albicans NCIM C27 by serial dilution method. Format: functional.
Test [3] concerns Klebsiella pneumoniae. Nature of the test: Antibacterial activity against Klebsiella pneumoniae ATCC 13883 by serial dilution method. Format: functional.
Test [4] deals with Bacillus subtilis. Nature of the test: Antibacterial activity against Bacillus subtilis ATCC 6033 by serial dilution method. It is filed as functional.
The next test deals with Staphylococcus aureus. The test is described as follows: Antibacterial activity against Staphylococcus aureus ATCC 25923 by serial dilution method. Format: functional.
In test [5] the test system is Aspergillus niger. The test is described as follows: Antifungal activity against Aspergillus niger NCIM 590 by serial dilution method. It is filed as functional.
Test [6] has as its system Aspergillus flavus. The test is described as follows: Antifungal activity against Aspergillus flavus NCIM 539 by serial dilution method. Format: functional.
The subject of test [7] is Escherichia coli. The test is described as follows: Antibacterial activity against Escherichia coli ATCC 25922 at 64 ug/mL by serial dilution method. Format: functional, organism-based.
The subject of test [8] is Aspergillus flavus. Nature of the test: Antifungal activity against Aspergillus flavus NCIM 539 at 64 ug/mL by serial dilution method. It is filed as functional, organism-based.
For test [9], the system named is Candida albicans. Nature of the test: Antifungal activity against Candida albicans NCIM C27 at 64 ug/mL by serial dilution method. Format: functional, organism-based.
Test [10] has as its system Bacillus subtilis. The test is described as follows: Antibacterial activity against Bacillus subtilis ATCC 6033 at 64 ug/mL by serial dilution method. It is filed as functional, organism-based.
In test [11] the test system is Aspergillus niger. Nature of the test: Antifungal activity against Aspergillus niger NCIM 590 at 64 ug/mL by serial dilution method. It is filed as functional, organism-based.
Test [12] deals with Klebsiella pneumoniae. Nature of the test: Antibacterial activity against Klebsiella pneumoniae ATCC 13883 at 64 ug/mL by serial dilution method. Format: functional, organism-based.

As for `Nc1nc2c(ncn2-c2ccc(S(=O)(=O)N3CCCCC3)cc2Cl)c(=O)[nH]1`, the MIC in the test with Pseudomonas aeruginosa worked out at 8 µg/mL (≈ 19.6 µM); with Enterococcus faecalis, 4 µg/mL (≈ 9.78 µM); against Escherichia coli [1] it was 16 µg/mL (≈ 39.1 µM); with Candida albicans [2], 64 µg/mL (≈ 157 µM); against Klebsiella pneumoniae [3], 16 µg/mL (≈ 39.1 µM); with Bacillus subtilis [4] it was 32 µg/mL (≈ 78.3 µM). Moreover, the results for the MIC in the test with Staphylococcus aureus, against Aspergillus niger [5] and against Aspergillus flavus [6] were 4 µg/mL (≈ 9.78 µM), 64 µg/mL (≈ 157 µM) and 64 µg/mL (≈ 157 µM), respectively.
As for `CC1CCN(S(=O)(=O)c2ccc(-n3cnc4c(=O)[nH]c(N)nc43)c(F)c2)CC1`, the MIC against Pseudomonas aeruginosa came out at 64 µg/mL (≈ 157 µM); in the test on Enterococcus faecalis, 32 µg/mL (≈ 78.7 µM); against Escherichia coli [1] it was 32 µg/mL (≈ 78.7 µM); against Candida albicans [2], 64 µg/mL (≈ 157 µM); in the test on Klebsiella pneumoniae [3], 32 µg/mL (≈ 78.7 µM); against Bacillus subtilis [4] it was 64 µg/mL (≈ 157 µM). For the same compound, the minimal inhibitory concentration (MIC) with Staphylococcus aureus amounted to 32 µg/mL (≈ 78.7 µM); in the test on Aspergillus niger [5] it was 32 µg/mL (≈ 78.7 µM); with Aspergillus flavus [6], 64 µg/mL (≈ 157 µM).
For `COc1cc(S(=O)(=O)N2CCC(C)CC2)ccc1-n1cnc2c(=O)[nH]c(N)nc21`, the MIC was determined as 64 µg/mL (≈ 153 µM) with Pseudomonas aeruginosa; 32 µg/mL (≈ 76.5 µM) with Enterococcus faecalis; 16 µg/mL (≈ 38.2 µM) in the test with Escherichia coli [1]; 32 µg/mL (≈ 76.5 µM) against Candida albicans [2]; 32 µg/mL (≈ 76.5 µM) against Klebsiella pneumoniae [3]; 16 µg/mL (≈ 38.2 µM) against Bacillus subtilis [4]. In addition, the minimum inhibitory concentration (MIC) against Staphylococcus aureus worked out at 32 µg/mL (≈ 76.5 µM); against Aspergillus niger [5] it was 32 µg/mL (≈ 76.5 µM); with Aspergillus flavus [6], 16 µg/mL (≈ 38.2 µM).
With `Nc1nc2c(ncn2-c2ccc(S(=O)(=O)N3CCCCC3)cc2)c(=O)[nH]1`, the minimal inhibitory concentration (MIC) in the test with Pseudomonas aeruginosa, in the test with Enterococcus faecalis and in the test with Staphylococcus aureus was 64 µg/mL (≈ 171 µM) in each case. In addition, the result in the test on Escherichia coli [7], in the test on Aspergillus flavus [8], in the test with Candida albicans [9], in the test on Bacillus subtilis [10], with Aspergillus niger [11] and with Klebsiella pneumoniae [12] was inactive.
In the case of `CCn1cc(C(=O)O)c(=O)c2cc(F)c(N3CCNCC3)cc21` [NORFLOXACIN], the MIC in the test on Pseudomonas aeruginosa was determined as 8 µg/mL (≈ 25.1 µM); against Enterococcus faecalis it was 8 µg/mL (≈ 25.1 µM); with Escherichia coli [1] it was 16 µg/mL (≈ 50.1 µM); in the test with Klebsiella pneumoniae [3] it was 16 µg/mL (≈ 50.1 µM); in the test with Bacillus subtilis [4], 32 µg/mL (≈ 100 µM); against Staphylococcus aureus, 8 µg/mL (≈ 25.1 µM).
For `COc1cc(S(=O)(=O)N2CCCCC2)ccc1-n1cnc2c(=O)[nH]c(N)nc21`, the MIC stood at 64 µg/mL (≈ 158 µM) in the test with Pseudomonas aeruginosa; 64 µg/mL (≈ 158 µM) in the test on Enterococcus faecalis; 32 µg/mL (≈ 79.1 µM) with Escherichia coli [1]; 32 µg/mL (≈ 79.1 µM) against Candida albicans [2]; 32 µg/mL (≈ 79.1 µM) in the test with Klebsiella pneumoniae [3]; 16 µg/mL (≈ 39.6 µM) in the test with Bacillus subtilis [4]. The MIC worked out at 64 µg/mL (≈ 158 µM) with Staphylococcus aureus, 16 µg/mL (≈ 39.6 µM) in the test with Aspergillus niger [5] and 16 µg/mL (≈ 39.6 µM) with Aspergillus flavus [6].
In the case of `CC1CCN(S(=O)(=O)c2ccc(-n3cnc4c(=O)[nH]c(N)nc43)cc2)CC1`, the MIC against Pseudomonas aeruginosa, in the test on Enterococcus faecalis, in the test on Bacillus subtilis [4] and with Staphylococcus aureus was 64 µg/mL (≈ 165 µM) throughout. The result with Escherichia coli [7], with Aspergillus flavus [8], with Candida albicans [9], in the test with Bacillus subtilis [10], with Aspergillus niger [11] and in the test with Klebsiella pneumoniae [12] was inactive.
Turning to `Nc1nc2c(ncn2-c2ccc(S(=O)(=O)N3CCCCC3)cc2F)c(=O)[nH]1`, the MIC was 64 µg/mL (≈ 163 µM) in the test on Pseudomonas aeruginosa; 16 µg/mL (≈ 40.8 µM) against Enterococcus faecalis; 64 µg/mL (≈ 163 µM) against Escherichia coli [1]; 32 µg/mL (≈ 81.5 µM) with Klebsiella pneumoniae [3]; 32 µg/mL (≈ 81.5 µM) in the test with Bacillus subtilis [4]; 32 µg/mL (≈ 81.5 µM) with Staphylococcus aureus. The result with Aspergillus flavus [8], in the test with Candida albicans [9] and with Aspergillus niger [11] was inactive.
For the compound `CC1CCN(S(=O)(=O)c2ccc(-n3cnc4c(=O)[nH]c(N)nc43)c(Cl)c2)CC1`, the MIC amounted to 16 µg/mL (≈ 37.8 µM) with Pseudomonas aeruginosa; 8 µg/mL (≈ 18.9 µM) against Enterococcus faecalis; 16 µg/mL (≈ 37.8 µM) with Escherichia coli [1]; 64 µg/mL (≈ 151 µM) against Candida albicans [2]; 16 µg/mL (≈ 37.8 µM) in the test on Klebsiella pneumoniae [3]; 32 µg/mL (≈ 75.7 µM) against Bacillus subtilis [4]. Moreover, the MIC against Staphylococcus aureus was 4 µg/mL (≈ 9.46 µM); in the test with Aspergillus niger [5], 32 µg/mL (≈ 75.7 µM); with Aspergillus flavus [6] it was 32 µg/mL (≈ 75.7 µM).

The MIC is the least concentration at which growth counts as inhibited. A higher MIC goes with a less susceptible organism.
